In patent US20260001928A1 (CORTERIA PHARMACEUTICALS, priority 2022, published 2026):
*1 amine or outer side, *2 acyl side, *3 side chain or, on linkers, in order; H or OH if unused. Where a SMILES comes first, the peptide text is derived from it. Side-chain parts run from the residue outwards. [ ]: non-standard residue; d: D form. The star is where a group is joined. C16 diacid = O=C(O)CCCCCCCCCCCCCCC(=O)*; γGlu = O=C(O)[C@H](CCC(=O)[*:2])N[*:1]; NMeI = CC[C@H](C)[C@H](NC)C(=O)O; Api = NC1(C(=O)O)CCNCC1; Aib = CC(C)(N)C(=O)O; Propionyl = CCC(=O)*

Assays:
human CRF2a receptor = biological target: T1, human CRF2a receptor (Homo sapiens, UniProt Q13324); assay: Activity at human CRF2a receptor, cAMP functional assay in TeloHEAC cells; format: cell-based; settings: TeloHEAC cells stably expressing human CRF2a receptor, relative to urocortin 2 (100 nM = 100%)
T1 construct: expressed in transfected cells; host or cells: TeloHEAC cells
T1 sequence (Q13324 1-411): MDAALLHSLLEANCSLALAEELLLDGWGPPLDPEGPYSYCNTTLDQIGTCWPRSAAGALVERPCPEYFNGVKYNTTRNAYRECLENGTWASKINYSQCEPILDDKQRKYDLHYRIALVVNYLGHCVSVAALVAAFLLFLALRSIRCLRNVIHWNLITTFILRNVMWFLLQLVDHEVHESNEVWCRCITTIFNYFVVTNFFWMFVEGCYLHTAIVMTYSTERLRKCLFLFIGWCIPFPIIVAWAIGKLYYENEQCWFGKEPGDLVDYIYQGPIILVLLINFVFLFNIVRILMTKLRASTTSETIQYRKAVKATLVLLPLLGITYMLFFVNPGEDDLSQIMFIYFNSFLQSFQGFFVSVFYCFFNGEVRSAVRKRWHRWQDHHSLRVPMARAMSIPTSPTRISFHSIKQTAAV
In short: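 TeloHEAC cells stably expressing human CRF2a (10000 cells/well, suspended in HBSS/20 mM HEPES with 2 mM IBMX) were exposed to compounds for 30 min at 37 °C. cAMP was read as the 665/620 nm fluorescence ratio after 1 h at room temperature. EC50 was derived relative to 100 nM urocortin 2, set as 100%.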

CFR1R receptor = biological target: T2, CFR1R receptor (Homo sapiens, UniProt P34998); assay: Activity at anti-target CFR1R receptor, cAMP assay in CRF1R-overexpression CHO-K1 cells; format: cell-based; settings: 100% = Sauvagine at 100 nM; for EC50: cAMP
T2 construct: host or cells: CHO-K1 (clone 2)
T2 sequence (P34998 24-415): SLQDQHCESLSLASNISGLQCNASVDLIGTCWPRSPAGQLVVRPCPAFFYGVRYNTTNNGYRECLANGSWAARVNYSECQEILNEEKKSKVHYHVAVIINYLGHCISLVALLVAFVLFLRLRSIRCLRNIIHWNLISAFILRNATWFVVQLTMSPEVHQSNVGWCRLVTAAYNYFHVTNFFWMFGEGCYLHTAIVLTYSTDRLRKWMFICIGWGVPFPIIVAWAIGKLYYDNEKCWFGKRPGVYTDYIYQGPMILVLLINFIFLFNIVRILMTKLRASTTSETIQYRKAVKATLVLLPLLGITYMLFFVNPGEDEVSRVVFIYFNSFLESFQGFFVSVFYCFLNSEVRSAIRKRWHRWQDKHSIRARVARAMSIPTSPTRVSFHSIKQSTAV
In short: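 Signal is normalised to 100 nM Sauvagine, taken as 100% activation, in clone 2 cells plated at a final 4000 cells/well from frozen stocks.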

EC50 (human CRF2a receptor)	Emax (% I) (CFR1R receptor)	EC50 (CFR1R receptor)	Compound
0.21 nM	−4 % I	> 250 nM	CC[C@H](C)[C@H](NC)C(=O)N[C@H](C(=O)N[C@@H](CC(C)C)C(=O)N[C@@H](CO)C(=O)N[C@@H](CC(C)C)C(=O)N[C@@H](CC(=O)O)C(=O)N[C@@H](C(=O)N1CCC[C@H]1C(=O)N[C@H](C(=O)N[C@@H](CCCCN)C(=O)N[C@@H](CC(C)C)C(=O)N[C@@H](CCCCNC(=O)CC[C@H](NC(=O)CCCCCCCCCCCCCCC(=O)O)C(=O)O)C(=O)N[C@@H](CCCCN)C(=O)N[C@H](C(=O)N[C@@H](CC(C)C)C(=O)N[C@@H](CC(C)C)C(=O)N[C@@H](CCC(=O)O)C(=O)N[C@@H](CCC(N)=O)C(=O)N[C@@H](CCC(=O)O)C(=O)N[C@@H](CCCCN)C(=O)N[C@@H](CCC(N)=O)C(=O)N[C@@H](CCCCN)C(=O)N[C@@H](CCCCN)C(=O)N[C@@H](CCC(N)=O)C(=O)N[C@@H](CCCNC(=N)N)C(=O)N[C@@H](CCC(=O)O)C(=O)N[C@@H](CCC(N)=O)C(=O)N[C@@H](C)C(=O)N[C@@H](CCC(=O)O)C(=O)N[C@H](C(=O)N[C@@H](CC(N)=O)C(=O)N[C@@H](CCC(=O)O)C(=O)N[C@@H](CCC(N)=O)C(=O)N[C@H](C(=O)N[C@@H](CC(C)C)C(=O)N[C@@H](C)C(=O)N[C@@H](CCC(N)=O)C(=O)N[C@H](C(N)=O)C(C)C)[C@@H](C)CC)[C@@H](C)O)[C@@H](C)CC)[C@@H](C)CC)C(C)C)C(C)C [compound 71] (H-[NMeI]VLSLD[dV]PIKLK([γGlu-C16 diacid])KILLEQEKQKKQREQAETNEQILAQV-NH2)
0.14 nM	18 % I	> 250 nM	CC[C@H](C)[C@H](NC)C(=O)N[C@H](C(=O)N[C@@H](CC(C)C)C(=O)N[C@@H](CO)C(=O)N[C@@H](CC(C)C)C(=O)N[C@@H](CC(=O)O)C(=O)N[C@@H](C(=O)N1CCC[C@H]1C(=O)N[C@H](C(=O)N[C@@H](CCCCN)C(=O)N[C@@H](CC(C)C)C(=O)N[C@@H](CCCCNC(=O)CC[C@H](NC(=O)CCCCCCCCCCCCCCC(=O)O)C(=O)O)C(=O)N[C@@H](CCCCN)C(=O)N[C@H](C(=O)N[C@@H](CC(C)C)C(=O)N[C@@H](CC(C)C)C(=O)N[C@@H](CCC(=O)O)C(=O)N[C@@H](CCC(N)=O)C(=O)N[C@@H](CCC(=O)O)C(=O)N[C@@H](CCCCN)C(=O)N[C@@H](CCC(N)=O)C(=O)N[C@@H](CCCCN)C(=O)N[C@@H](CCCCN)C(=O)N[C@@H](CCC(N)=O)C(=O)N[C@@H](CCCNC(=N)N)C(=O)N[C@@H](CCC(=O)O)C(=O)N[C@@H](CCC(N)=O)C(=O)N[C@@H](C)C(=O)N[C@@H](CCC(=O)O)C(=O)N[C@H](C(=O)N[C@@H](CC(N)=O)C(=O)NC1(C(=O)N[C@@H](CCC(N)=O)C(=O)N[C@H](C(=O)N[C@@H](CC(C)C)C(=O)N[C@@H](C)C(=O)N[C@@H](CCC(N)=O)C(=O)N[C@H](C(N)=O)C(C)C)[C@@H](C)CC)CCNCC1)[C@@H](C)O)[C@@H](C)CC)[C@@H](C)CC)C(C)C)C(C)C [compound 72] (H-[NMeI]VLSLD[dV]PIKLK([γGlu-C16 diacid])KILLEQEKQKKQREQAETN[Api]QILAQV-NH2)
0.15 nM	7 % I	> 250 nM	CC[C@H](C)[C@H](NC)C(=O)N[C@H](C(=O)N[C@@H](CC(C)C)C(=O)N[C@@H](CO)C(=O)N[C@@H](CC(C)C)C(=O)N[C@@H](CC(=O)O)C(=O)N[C@@H](C(=O)N1CCC[C@H]1C(=O)N[C@H](C(=O)N[C@@H](CCCCN)C(=O)N[C@@H](CC(C)C)C(=O)N[C@@H](CCCCNC(=O)CC[C@H](NC(=O)CCCCCCCCCCCCCCC(=O)O)C(=O)O)C(=O)N[C@@H](CCCCN)C(=O)N[C@H](C(=O)N[C@@H](CC(C)C)C(=O)N[C@@H](CC(C)C)C(=O)N[C@@H](CCC(=O)O)C(=O)N[C@@H](CCC(N)=O)C(=O)N[C@@H](CCC(=O)O)C(=O)N[C@@H](CCCCN)C(=O)N[C@@H](CCC(N)=O)C(=O)N[C@@H](CCCCN)C(=O)N[C@@H](C)C(=O)N[C@@H](CCC(N)=O)C(=O)N[C@@H](CCCNC(=N)N)C(=O)N[C@@H](CCC(=O)O)C(=O)N[C@@H](CCC(N)=O)C(=O)N[C@@H](C)C(=O)N[C@@H](CCC(=O)O)C(=O)N[C@H](C(=O)N[C@@H](CC(N)=O)C(=O)NC(C)(C)C(=O)N[C@@H](CCC(N)=O)C(=O)N[C@H](C(=O)N[C@@H](CC(C)C)C(=O)N[C@@H](C)C(=O)N[C@@H](CCC(N)=O)C(=O)N[C@H](C(N)=O)C(C)C)[C@@H](C)CC)[C@@H](C)O)[C@@H](C)CC)[C@@H](C)CC)C(C)C)C(C)C [compound 74] (H-[NMeI]VLSLD[dV]PIKLK([γGlu-C16 diacid])KILLEQEKQKAQREQAETN[Aib]QILAQV-NH2)
0.19 nM	3 % I	> 250 nM	CC[C@H](C)[C@H](NC)C(=O)N[C@H](C(=O)N[C@@H](CC(C)C)C(=O)N[C@@H](CO)C(=O)N[C@@H](CC(C)C)C(=O)N[C@@H](CC(=O)O)C(=O)N[C@@H](C(=O)N1CCC[C@H]1C(=O)N[C@H](C(=O)N[C@@H](CCCCN)C(=O)N[C@@H](CC(C)C)C(=O)N[C@@H](CCCCNC(=O)CC[C@H](NC(=O)CCCCCCCCCCCCCCC(=O)O)C(=O)O)C(=O)N[C@@H](CCCCN)C(=O)N[C@H](C(=O)N[C@@H](CC(C)C)C(=O)N[C@@H](CC(C)C)C(=O)N[C@@H](CCC(=O)O)C(=O)N[C@@H](CCC(N)=O)C(=O)N[C@@H](CCC(=O)O)C(=O)N[C@@H](CCCCN)C(=O)N[C@@H](CCC(N)=O)C(=O)N[C@@H](CCCCN)C(=O)NC(C)(C)C(=O)N[C@@H](CCC(N)=O)C(=O)N[C@@H](CCCNC(=N)N)C(=O)N[C@@H](CCC(=O)O)C(=O)N[C@@H](CCC(N)=O)C(=O)N[C@@H](C)C(=O)N[C@@H](CCC(=O)O)C(=O)N[C@H](C(=O)N[C@@H](CC(N)=O)C(=O)NC(C)(C)C(=O)N[C@@H](CCC(N)=O)C(=O)N[C@H](C(=O)N[C@@H](CC(C)C)C(=O)N[C@@H](C)C(=O)N[C@@H](CCC(N)=O)C(=O)N[C@H](C(N)=O)C(C)C)[C@@H](C)CC)[C@@H](C)O)[C@@H](C)CC)[C@@H](C)CC)C(C)C)C(C)C [compound 75] (H-[NMeI]VLSLD[dV]PIKLK([γGlu-C16 diacid])KILLEQEKQK[Aib]QREQAETN[Aib]QILAQV-NH2)
0.73 nM	7 % I	> 250 nM	CCC(=O)N[C@H](C(=O)N[C@@H](CC(C)C)C(=O)N[C@@H](CO)C(=O)N[C@@H](CC(C)C)C(=O)N[C@@H](CC(=O)O)C(=O)N[C@@H](C(=O)N1CCC[C@H]1C(=O)N[C@H](C(=O)N[C@@H](CCCCN)C(=O)N[C@@H](CC(C)C)C(=O)N[C@@H](CCCCNC(=O)CC[C@H](NC(=O)CCCCCCCCCCCCCCC(=O)O)C(=O)O)C(=O)N[C@@H](CCCCN)C(=O)N[C@H](C(=O)N[C@@H](CC(C)C)C(=O)N[C@@H](CC(C)C)C(=O)N[C@@H](CCC(=O)O)C(=O)N[C@@H](CCC(N)=O)C(=O)N[C@@H](CCC(=O)O)C(=O)N[C@@H](CCCCN)C(=O)N[C@@H](CCC(N)=O)C(=O)N[C@@H](CCCCN)C(=O)N[C@@H](CCCCN)C(=O)N[C@@H](CCC(N)=O)C(=O)N[C@@H](CCCNC(=N)N)C(=O)N[C@@H](CCC(=O)O)C(=O)N[C@@H](CCC(N)=O)C(=O)N[C@@H](C)C(=O)N[C@@H](CCC(=O)O)C(=O)N[C@H](C(=O)N[C@@H](CC(N)=O)C(=O)NC(C)(C)C(=O)N[C@@H](CCC(N)=O)C(=O)N[C@H](C(=O)N[C@@H](CC(C)C)C(=O)N[C@@H](C)C(=O)N[C@@H](CCC(N)=O)C(=O)N[C@H](C(N)=O)C(C)C)[C@@H](C)CC)[C@@H](C)O)[C@@H](C)CC)[C@@H](C)CC)C(C)C)C(C)C [compound 78] (Propionyl-VLSLD[dV]PIKLK([γGlu-C16 diacid])KILLEQEKQKKQREQAETN[Aib]QILAQV-NH2)
